Assay results from patent US20120202794A1 (priority 2011, published 2012).

Key:
HCV Replicon 1b = test: HCV inhibition assay, HCV replicon 1b (Clone A or ET-lunet cells; RT-PCR or luciferase reporter); assay type: cell-based; conditions: Hepatitis C virus, 96 h, HCV replicon 1b; 4 days incubation; read-out: Replicon 1b potency EC90
Method: HCV inhibition assay. Clone A or ET-lunet cells were seeded at a density of 1500 or 3000 cells per well in a 96-well plate, respectively. Test compounds serially diluted in culture medium without G418 were added to cells so that the final DMSO concentration was 0.5%. Plates were incubated at 37° C. in a 5% CO2 atmosphere for 4 days. Inhibition of HCV RNA replication was determined by real time PCR (RT-PCR) or by measuring the levels of luminescence expressed via the luciferase reporter gene encoded within the ET replicon. Briefly, for the RT-PCR assay, total RNA was extracted using the RNeasy-96 kit as recommended by the manufacturer (Qiagen, Valencia, Calif.), reversed transcribed into cDNA, and amplified using primer and probe mix for HCV 5′-NTR RNA and human ribosomal RNA (rRNA) in a one-step RT-PCR reaction as described previously (50). A relative quantification method was used to determine the extent of inhibition. The threshold cycle (Ct) of rRNA was subtracted from the Ct of HCV RNA (ΔCt). The average ΔCt of the DMSO cell controls was then subtracted from the ΔCt of the compound treated sample (ΔΔCt). Percent inhibition was determined by using the following equation: %=(1−(2^−ΔΔC^t))×100. For the luciferase-based replicon assay, luminescence was measured by using a Victor3 plate reader (Perkin-Elmer, Boston, Mass.) following the addition of Bright-Glo reagent as recommended by the manufacturer (Promega, Madison, Wis.). Percent inhibition of HCV replication was determined by comparing the change in luminescence of the drug treated wells versus the DMSO cell controls. EC50 and EC90 values, the concentrations at which 50% and 90% inhibition were achieved, were determined using the GraphPad Prism software (San Diego, Calif.).

[1] = Cell cytotoxicity assay (MTS), CC90 as reported in Table 1, cell line not stated; assay type: cell-based; conditions: human, cell line not given
Method: Cell cytotoxicity assays. Each compound (serially diluted from 100 μM) was added to Huh7 (2×10^3 cells/well), HepG2 (2×10^3 cells/well), BxPC3 (2×10^3 cells/well), or CEM (5×10^3 cells/well) cells and allowed to incubate for 8 days at 37° C. A medium only control was used to determine the minimum absorbance value […]. At the end of the growth period, MTS dye from the CellTiter 96 Aqueous One Solution Cell Proliferation Assay kit (Promega) was added to each well and the plate was incubated for an additional 2 hours. The absorbance at 490 nm was read with a Victor3 plate reader (Perkin Elmer) using the medium only control wells as blanks. The 90% inhibition value (CC90) was determined by comparing the absorbance in wells containing cells and test compound to untreated cell control wells.

SMILES | EC90 (HCV Replicon 1b) [µM] | CC90 at 8 days ([1]; MTS assay, 8 days incubation) [µM] | CC90 at 8 days [1] [µM]
CSCCC1C(=O)N[C@@H](c2ccccc2)CN1C(=O)c1cc(-c2ccc(F)cc2)on1 (stereo in doubt) [Compound 458, (3R,6S)-4-(5-(4-fluorophenyl)isoxazole-3-carbonyl)-3-((methylthio)ethyl)-6-phenylpiperazin-2-one] | 2.07 | > 10 | –
CC(C)C[C@H]1C(=O)NC(c2ccccc2)N1C(=O)[C@H]1C[C@@H]1c1ccccc1 (stereo in doubt) [Compound 531, (2R,5S)-5-isobutyl-2-phenyl-1-((1S,2S)-2-phenylcyclopropanecarbonyl)imidazolidin-4-one] | > 10 | > 10 | –
CC(C)C[C@H]1C(=O)NC(c2ccccc2)N1C(=O)[C@H]1C[C@@H]1c1ccc(F)cc1 (stereo in doubt) [Compound 533, (2R,5S)-1-((1S,2S)-2-(4-fluorophenyl)cyclopropane-carbonyl)-5-isobutyl-2-phenyl-imidazolidin-4-one] | > 10 | > 10 | –
CC(C)C[C@H]1CN(C(=O)[C@@H]2C[C@H]2c2ccccc2)[C@@H](CC(C)C)C(=O)N1 [Compound 70] | 0.8 | – | > 10
CC(C)C[C@H]1CN(C(=O)/C=C/c2ccc(Cl)cc2)[C@@H](CC(C)C)C(=O)N1 [Compound 72] | 2.5 | – | > 10
CC(C)C[C@H]1CN(C(=O)/C=C/c2ccc(C(F)(F)F)cc2)[C@@H](CC(C)C)C(=O)N1 [Compound 73] | 3.34 | – | > 10
CC(C)C[C@H]1CN(C(=O)/C=C/c2cccnc2)[C@@H](CC(C)C)C(=O)N1 [Compound 74] | > 10 | – | > 10
C/C(=C\C(=O)N1C[C@H](CC(C)C)NC(=O)[C@@H]1CC(C)C)c1ccccc1 [Compound 75] | > 10 | – | > 10
CC(C)C[C@H]1CN(C(=O)c2cc3ccccc3o2)[C@@H](CC(C)C)C(=O)N1 [Compound 76] | 9.18 | – | > 10
CC(C)C[C@H]1CN(C(=O)/C=C/c2ccccc2)[C@@H](CC(C)C)C(=O)N1 [Compound 77] | 3.24 | – | > 10
C/C(=C\c1ccccc1)C(=O)N1C[C@H](CC(C)C)NC(=O)[C@@H]1CC(C)C [Compound 78] | 9.93 | – | > 10
Cc1ccc(/C=C/C(=O)N2C[C@H](CC(C)C)NC(=O)[C@@H]2CC(C)C)cc1 [Compound 79] | 5.29 | – | > 10
CC(C)C[C@H]1CN(C(=O)/C=C/c2ccc(F)cc2)[C@@H](CC(C)C)C(=O)N1 [Compound 80] | 2.49 | – | > 10
CC(C)C[C@H]1CN(C(=O)/C=C/c2ccc(Cl)c(Cl)c2)[C@@H](CC(C)C)C(=O)N1 [Compound 81] | 7.31 | – | > 10
CC(C)C[C@H]1CN(C(=O)/C=C/c2ccc(F)c(F)c2)[C@@H](CC(C)C)C(=O)N1 [Compound 82] | 1.22 | – | > 10
CC(C)C[C@H]1CN(C(=O)/C=C/c2cccc(F)c2)[C@@H](CC(C)C)C(=O)N1 [Compound 83] | 2.91 | – | > 10
CC(C)C[C@H]1CN(C(=O)/C=C/c2cc(F)c(F)c(F)c2)[C@@H](CC(C)C)C(=O)N1 [Compound 84] | 2.64 | – | > 10
CC(C)C[C@H]1CN(C(=O)/C=C/c2ccc(F)c(Cl)c2)[C@@H](CC(C)C)C(=O)N1 [Compound 85] | 8.65 | – | > 10
CC(C)C[C@H]1CN(C(=O)/C=C/c2ccc(Cl)cc2F)[C@@H](CC(C)C)C(=O)N1 [Compound 86] | 0.59 | – | > 10
CC(C)C[C@H]1CN(C(=O)/C=C/c2ccc(F)cc2F)[C@@H](CC(C)C)C(=O)N1 [Compound 87] | 0.57 | – | > 10
Cc1cccc(C)c1NC(=O)CN1C[C@H](CC(C)C)NC(=O)[C@@H]1CC(C)C [Compound 88] | > 10 | – | > 10

SMILES | EC90 (HCV Replicon 1b) [µM] | CC90 at 8 days ([1]; MTS assay, 8 days incubation) [µM] | CC90 at 8 days [1] [µM]
CC(C)C[C@H]1CN(C(=O)c2ccc(Oc3ccccc3)cc2)[C@@H](CC(C)C)C(=O)N1 [Compound 89] | 6.88 | – | > 10
CC(C)C[C@H]1CN(C(=O)/C=C/c2ccc3c(c2)OCO3)[C@@H](CC(C)C)C(=O)N1 [Compound 90] | 7.72 | – | > 10
CC(C)C[C@H]1CN(C(=O)/C=C/c2ccc([N+](=O)[O-])cc2)[C@@H](CC(C)C)C(=O)N1 [Compound 91] | > 10 | – | > 10
CC(C)C[C@H]1CN(C(=O)/C=C/c2ccc(S(C)(=O)=O)cc2)[C@@H](CC(C)C)C(=O)N1 [Compound 92] | > 10 | – | > 10
CC(C)C[C@H]1CN(C(=O)/C=C/c2ccc(C(F)(F)F)cc2F)[C@@H](CC(C)C)C(=O)N1 [Compound 93] | 9.62 | – | > 10
CC(C)C[C@H]1CN(C(=O)/C=C/c2ccc(-c3ccccc3)cc2)[C@@H](CC(C)C)C(=O)N1 [Compound 94] | 8.37 | – | > 10
CC(C)C[C@H]1CN(C(=O)/C=C/c2cc(F)cc(F)c2)[C@@H](CC(C)C)C(=O)N1 [Compound 95] | 9.31 | – | > 10
CCC[C@H]1CN(C(=O)/C=C/c2ccc(F)cc2F)[C@@H](CC(C)C)C(=O)N1 [Compound 96] | 1.11 | – | > 10
CC(C)C[C@H]1CN(C(=O)c2ccc(-c3ccccc3)o2)[C@@H](CC(C)C)C(=O)N1 [Compound 97] | 7.28 | – | > 10
CC(C)C[C@H]1CN(C(=O)c2csc(-c3ccccc3)n2)[C@@H](CC(C)C)C(=O)N1 [Compound 98] | 7.92 | – | > 10
CC(C)C[C@H]1CN(C(=O)c2coc(-c3ccccc3)n2)[C@@H](CC(C)C)C(=O)N1 [Compound 99] | > 10 | – | > 10
CC(C)C[C@H]1CN(C(=O)c2cc(-c3ccccc3)[nH]n2)[C@@H](CC(C)C)C(=O)N1 [Compound 100] | > 10 | – | > 10
CC(C)C[C@H]1CN(C(=O)c2c[nH]c(-c3ccccc3)n2)[C@@H](CC(C)C)C(=O)N1 [Compound 101] | > 10 | – | > 10
CC(C)C[C@H]1CN(C(=O)c2cn(-c3ccccc3)cn2)[C@@H](CC(C)C)C(=O)N1 [Compound 102] | > 10 | – | > 10
CC(C)C[C@H]1CN(C(=O)c2cn(-c3ccc(F)cc3)cn2)[C@@H](CC(C)C)C(=O)N1 [Compound 103] | 8.64 | – | > 10
CC(C)C[C@H]1CN(C(=O)c2cnn(-c3ccc(F)cc3)c2)[C@@H](CC(C)C)C(=O)N1 [Compound 104] | 4.74 | – | > 10
CC(C)C[C@H]1CN(C(=O)c2cc(-c3ccc(Cl)cc3)ns2)[C@@H](CC(C)C)C(=O)N1 [Compound 105] | 1.49 | – | > 10
CC(C)C[C@H]1CN(C(=O)c2cc(C3CC3)on2)[C@@H](CC(C)C)C(=O)N1 [Compound 106] | 8.77 | – | > 10
CCc1cc(C(=O)N2C[C@H](CC(C)C)NC(=O)[C@@H]2CC(C)C)no1 [Compound 107] | 8.41 | – | > 10
CC(C)C[C@H]1C(=O)N[C@@H](C2CCCC2)CN1C(=O)[C@@H]1C[C@H]1c1ccc(Br)cc1 [Compound 332, (3S,6S)-6-cyclopentyl-4-((1R,2R)-2-(4-bromophenyl)cyclopropanecarbonyl)-3-isobutylpiperazin-2-one] | 1.31 | – | –
